Test results taken from patent US20090264471A1, “Compounds, Compositions and Methods Comprising Triazole Derivatives” (Institute for OneWorld Health, priority 2008, published 2009).

Each compound was assayed against T1, CFTR (Homo sapiens, UniProt P13569) (assay: T84 assay (FLIPR membrane potential dye, forskolin/IBMX-stimulated CFTR channel activity)). Conditions: human colonic T84 cells, average of at least 2 runs unless annotated n = 1.
T1 construct: results in the phosphorylation and opening of CFTR anion channels; host or cells: Human colonic T84 cells
T1 sequence (P13569 whole entry): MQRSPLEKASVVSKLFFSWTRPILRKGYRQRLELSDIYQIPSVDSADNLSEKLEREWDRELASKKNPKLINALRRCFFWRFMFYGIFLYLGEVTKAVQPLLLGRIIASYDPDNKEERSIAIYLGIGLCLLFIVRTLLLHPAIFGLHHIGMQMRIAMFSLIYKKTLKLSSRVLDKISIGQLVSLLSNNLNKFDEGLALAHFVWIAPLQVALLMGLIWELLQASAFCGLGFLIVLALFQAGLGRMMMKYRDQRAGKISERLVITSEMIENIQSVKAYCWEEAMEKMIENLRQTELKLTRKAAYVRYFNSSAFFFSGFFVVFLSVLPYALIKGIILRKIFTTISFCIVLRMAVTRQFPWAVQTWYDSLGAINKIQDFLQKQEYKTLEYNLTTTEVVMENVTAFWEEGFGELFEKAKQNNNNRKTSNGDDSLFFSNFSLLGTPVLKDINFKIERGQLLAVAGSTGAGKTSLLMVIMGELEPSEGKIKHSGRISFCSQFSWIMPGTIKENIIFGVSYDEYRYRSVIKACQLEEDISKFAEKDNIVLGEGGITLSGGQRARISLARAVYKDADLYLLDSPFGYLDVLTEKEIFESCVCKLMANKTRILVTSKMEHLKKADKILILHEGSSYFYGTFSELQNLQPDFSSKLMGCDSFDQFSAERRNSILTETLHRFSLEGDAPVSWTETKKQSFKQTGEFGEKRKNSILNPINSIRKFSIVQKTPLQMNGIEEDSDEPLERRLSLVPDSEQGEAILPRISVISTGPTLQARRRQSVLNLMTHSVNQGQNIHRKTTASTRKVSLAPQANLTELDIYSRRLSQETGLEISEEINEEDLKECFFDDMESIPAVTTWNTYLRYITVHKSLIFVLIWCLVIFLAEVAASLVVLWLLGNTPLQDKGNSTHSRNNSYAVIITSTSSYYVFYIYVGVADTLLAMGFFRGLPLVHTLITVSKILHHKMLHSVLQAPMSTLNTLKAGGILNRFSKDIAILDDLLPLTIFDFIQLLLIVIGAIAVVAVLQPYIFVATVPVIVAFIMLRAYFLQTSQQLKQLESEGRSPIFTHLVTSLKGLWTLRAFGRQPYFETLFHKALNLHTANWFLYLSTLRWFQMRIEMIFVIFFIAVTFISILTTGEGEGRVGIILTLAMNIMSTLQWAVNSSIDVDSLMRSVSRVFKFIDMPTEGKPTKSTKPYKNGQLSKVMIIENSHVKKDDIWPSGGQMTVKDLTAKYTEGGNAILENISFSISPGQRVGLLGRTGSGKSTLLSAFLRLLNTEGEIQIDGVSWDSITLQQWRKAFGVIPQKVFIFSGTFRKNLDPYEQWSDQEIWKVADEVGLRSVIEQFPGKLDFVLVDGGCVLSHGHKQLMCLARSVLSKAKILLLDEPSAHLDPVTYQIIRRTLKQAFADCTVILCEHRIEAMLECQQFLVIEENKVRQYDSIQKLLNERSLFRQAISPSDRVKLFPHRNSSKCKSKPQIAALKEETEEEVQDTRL
Type: cell-based
Description: (§1) For example, Human colonic T84 cells can be acquired from the European Collection of Cell Cultures (ECACC) and grown in standard culture conditions as described by the supplier. On the day before assay 25,000 T84 cells per well are plated into standard black walled, clear bottom 384-well assay plates in standard growth medium consisting of DMEM:F12 with 10% FBS and incubated overnight. On the day of the assay the plates are washed using a standard assay buffer (HBSS with 10 mM Hepes) and incubated for 15 minutes in serum free cell culture medium before the addition of a commercially available membrane potential sensitive fluorescent dye (FLIPR Red membrane potential dye, Molecular Devices Corporation). T84 cells are incubated with the FLIPR Red membrane potential dye for 45 minutes in the presence and absence of test compound before being transferred to a commercially available fluorescence imaging plate reader (FLIPR384, Molecular Devices Corporation). Fluorescence levels are monitored continuously every second for 150 seconds; after an initial 10 second baseline, CFTR channel activity is stimulated through the addition of 10 μM forskolin in the presence of 100 μM of the phosphodiesterase inhibitor iso-butyl-methylxanthine (IBMX). Addition of the forskolin leads to the activation of intracellular adenylyl cylase 1, elevating cAMP levels and results in the phosphorylation and opening of CFTR anion channels. CFTR channel opening causes chloride ion efflux and subsequent depolarization of the cells, which is measured by an increase in fluorescence. CFTR inihibitor compounds prevent cell depolarization and the associated increase in fluorescence.
as §1, with “Human colonic” for “For example, Human colonic”, “T84 cells are acquired from” for “T84 cells can be acquired from”, “(ECACC) and are grown in” for “(ECACC) and grown in”, “fluorescence. CFTR inhibitor compounds prevent” for “fluorescence. CFTR inihibitor compounds prevent”

Question: With `O=C(NCc1ccc(F)c(F)c1)c1n[nH]c(-c2cc(Cl)c(O)c(Cl)c2)n1` [Compound 84, 5-(3,5-dichloro-4-hydroxyphenyl)-N-(3,4-difluorobenzyl)-1H-1,2,4-triazole-3-carboxamide] as the compound, how does the IC50 read?
Answer: Its IC50 is 15.6 µM.

Question: With `O=C(NCc1ccc(OC(F)(F)F)cc1)c1n[nH]c(-c2cc(Cl)c(O)c(Cl)c2)n1` [Compound 94, 5-(3,5-dichloro-4-hydroxyphenyl)-N-(4-(trifluoromethoxy)benzyl)-1H-1,2,4-triazole-3-carboxamide] as the compound, how does the IC50 read?
Answer: Its IC50 is 9.11 µM.

Question: How did the IC50 turn out when `O=C(NC(c1ccccc1)c1ccccc1)c1nc(-c2cc(Br)c(O)c(Br)c2)n[nH]1` [Compound 78, N-benzhydryl-3-(3,5-dibromo-4-hydroxyphenyl)-1H-1,2,4-triazole-5-carboxamide] was run?
Answer: The IC50 was 3.23 µM.

Question: Which IC50 does the source give for `O=C(NCc1cc(F)c(F)c(F)c1)c1n[nH]c(-c2cc(Cl)c(O)c(Cl)c2)n1` [Compound 89, 5-(3,5-dichloro-4-hydroxyphenyl)-N-(3,4,5-trifluorobenzyl)-1H-1,2,4-triazole-3-carboxamide] here?
Answer: The IC50 was 5.25 µM.

Question: Which IC50 does the source give for `CN(Cc1ccc(C(C)(C)C)cc1)C(=O)c1n[nH]c(-c2cc(Cl)c(O)c(Cl)c2)n1` [Compound 96, N-(4-tert-butylbenzyl)-5-(3,5-dichloro-4-hydroxyphenyl)-N-methyl-1H-1,2,4-triazole-3-carboxamide] here?
Answer: The IC50 was 7.53 µM.

Question: How did the IC50 turn out when `O=C(NCc1cccc(OC(F)(F)F)c1)c1n[nH]c(-c2cc(Cl)c(O)c(Cl)c2)n1` [Compound 86, 5-(3,5-dichloro-4-hydroxyphenyl)-N-(3-(trifluoromethoxy)benzyl)-1H-1,2,4-triazole-3-carboxamide] was run?
Answer: The IC50 was 22.2 µM.

Question: Which IC50 does the source give for `O=C(NCc1ccccc1C(F)(F)F)c1n[nH]c(-c2cc(Cl)c(O)c(Cl)c2)n1` [Compound 85, 5-(3,5-dichloro-4-hydroxyphenyl)-N-(2-(trifluoromethyl)benzyl)-1H-1,2,4-triazole-3-carboxamide] here?
Answer: Its IC50 is 18 µM.

Question: For `CN(Cc1ccc(Cl)cc1)C(=O)c1n[nH]c(-c2cc(Cl)c(O)c(Cl)c2)n1` [Compound 93, N-(4-chlorobenzyl)-5-(3,5-dichloro-4-hydroxyphenyl)-N-methyl-1H-1,2,4-triazole-3-carboxamide], which IC50 is on record?
Answer: The IC50 was 25 µM.

Question: With `CN(Cc1ccc(Cl)c(Cl)c1)C(=O)c1n[nH]c(-c2cc(Cl)c(O)c(Cl)c2)n1` [Compound 95, 5-(3,5-Dichloro-4-hydroxyphenyl)-N-(3,4-dichlorobenzyl)-N-methyl-1H-1,2,4-triazole-3-carboxamide] as the compound, how does the IC50 read?
Answer: The IC50 was 7.92 µM.

Question: Which IC50 does the source give for `O=C(c1n[nH]c(-c2cc(Cl)c(O)c(Cl)c2)n1)N1CCC(Cc2ccccc2)CC1` [Compound 82, (4-benzylpiperidin-1-yl)(5-(3,5-dichloro-4-hydroxyphenyl)-1H-1,2,4-triazol-3-yl)methanone] here?
Answer: The IC50 was 7.05 µM.

Question: With `O=C(NCc1cc(Cl)cc(Cl)c1)c1n[nH]c(-c2cc(Cl)c(O)c(Cl)c2)n1` [Compound 97, 5-(3,5-dichloro-4-hydroxyphenyl)-N-(3,5-dichlorobenzyl)-1H-1,2,4-triazole-3-carboxamide] as the compound, how does the IC50 read?
Answer: Its IC50 is 6.8 µM.

Question: For `O=C(NCc1ccc(Cl)c(Cl)c1)c1n[nH]c(-c2cc(Cl)c(O)c(Cl)c2)n1` [Compound 91, 5-(3,5-dichloro-4-hydroxyphenyl)-N-(3,4-dichlorobenzyl)-1H-1,2,4-triazole-3-carboxamide], which IC50 is on record?
Answer: The IC50 was 1.57 µM.

Question: `O=C(c1nc(-c2cc(Br)c(O)c(Br)c2)n[nH]1)N1CCN(c2cccc(C(F)(F)F)c2)CC1` [Compound 79, (3-(3,5-dibromo-4-hydroxyphenyl)-1H-1,2,4-triazol-5-yl)(4-(3-(trifluoromethyl)phenyl)piperazin-1-yl)methanone] was tested. Which IC50 did it give?
Answer: The IC50 was 6.93 µM.

Question: With `O=C(NC(c1ccccc1)c1ccccc1)c1n[nH]c(-c2cc(Cl)c(O)c(Cl)c2)n1` [Compound 88, N-benzhydryl-5-(3,5-dichloro-4-hydroxyphenyl)-1H-1,2,4-triazole-3-carboxamide] as the compound, how does the IC50 read?
Answer: Its IC50 is 7.33 µM.

Question: `O=C(NCc1ccc(Oc2ccccc2)cc1)c1n[nH]c(-c2cc(Cl)c(O)c(Cl)c2)n1` [Compound 92, 5-(3,5-dichloro-4-hydroxyphenyl)-N-(4-phenoxybenzyl)-1H-1,2,4-triazole-3-carboxamide] was tested. Which IC50 did it give?
Answer: Its IC50 is 3.28 µM.

Question: `O=C(NCc1ccc(Oc2ccccc2)cc1)c1nc(-c2cc(Br)c(O)c(Br)c2)n[nH]1` [Compound 81, 3-(3,5-dibromo-4-hydroxyphenyl)-N-(4-phenoxybenzyl)-1H-1,2,4-triazole-5-carboxamide] was tested. Which IC50 did it give?
Answer: Its IC50 is 1.51 µM.

Question: Which IC50 does the source give for `O=C(c1n[nH]c(-c2cc(Cl)c(O)c(Cl)c2)n1)N1CCN(c2cccc(C(F)(F)F)c2)CC1` [Compound 83, (5-(3,5-dichloro-4-hydroxyphenyl)-1H-1,2,4-triazol-3-yl)(4-(3-(trifluoromethyl)phenyl)piperazin-1-yl)methanone] here?
Answer: The IC50 was 6.9 µM.

Question: How did the IC50 turn out when `CN(Cc1cccc(C(F)(F)F)c1)C(=O)c1n[nH]c(-c2cc(Cl)c(O)c(Cl)c2)n1` [Compound 90, 5-(3,5-dichloro-4-hydroxyphenyl)-N-methyl-N-(3-(trifluoromethyl)benzyl)-1H-1,2,4-triazole-3-carboxamide] was run?
Answer: Its IC50 is 24.1 µM.

Question: Which IC50 does the source give for `O=C(c1nc(-c2cc(Br)c(O)c(Br)c2)n[nH]1)N1CCC(Cc2ccccc2)CC1` [Compound 80, (4-Benzylpiperidin-1-yl)(3-(3,5-dibromo-4-hydroxyphenyl)-1H-1,2,4-triazol-5-yl)methanone] here?
Answer: The IC50 was 10.5 µM.

Question: `O=C(NCc1ccc(C(F)(F)F)cc1)c1n[nH]c(-c2cc(Cl)c(O)c(Cl)c2)n1` [Compound 87, 5-(3,5-dichloro-4-hydroxyphenyl)-N-(4-(trifluoromethyl)benzyl)-1H-1,2,4-triazole-3-carboxamide] was tested. Which IC50 did it give?
Answer: The IC50 was 25.1 µM.
